Test results published in PubChem BioAssay (NCI).
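Abbreviation: GI50, concentration required for 50% inhibition of growth. Definition used: TGI = concentration required for complete inhibition of growth.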

Legend:
Experiment in all cases: DTP human tumour cell line panel, 384-well format
[1] = test system: SK-OV-3 ovarian
[2] = test system: MDA-MB-435 melanoma
[3] = test system: SR leukemia
[4] = test system: SF-268 CNS
[5] = test system: OVCAR-4 ovarian
[6] = test system: RXF 393 renal
[7] = test system: HL-60(TB) leukemia
[8] = test system: HCT-15 colon
[9] = test system: RPMI-8226 leukemia
[10] = test system: HOP-92 NSCLC
[11] = test system: SN12C renal
[12] = test system: SF-295 CNS
[13] = test system: HOP-62 NSCLC
[14] = test system: M14 melanoma
[15] = test system: UO-31 renal
[16] = test system: ACHN renal
[17] = test system: SF-539 CNS
[18] = test system: 786-0 renal
[19] = test system: SNB-19 CNS
[20] = test system: MALME-3M melanoma
[21] = test system: OVCAR-8 ovarian
[22] = test system: CCRF-CEM leukemia
[23] = test system: NCI-H23 lung
[24] = test system: SK-MEL-2 melanoma
[25] = test system: DU-145 prostate
[26] = test system: SW-620 colon
[27] = test system: PC-3 prostate
[28] = test system: MDA-MB-231 breast
[29] = test system: CAKI-1 renal
[30] = test system: MOLT-4 leukemia
[31] = test system: U251 glioblastoma
[32] = test system: HCT-116 colon
[33] = test system: NCI-H522 lung
[34] = test system: IGROV1 ovarian
[35] = test system: NCI-H226 lung
[36] = test system: SK-MEL-28 melanoma
[37] = test system: UACC-257 melanoma
[38] = test system: NCI-H322M lung
[39] = test system: COLO 205 colon
[40] = test system: UACC-62 melanoma
[41] = test system: TK-10 renal
[42] = test system: NCI/ADR-RES ovarian
[43] = test system: KM12 colon
[44] = test system: T-47D breast
[45] = test system: A498 renal
[46] = test system: HCC-2998 colon
[47] = test system: MCF7 breast
[48] = test system: SK-MEL-5 melanoma
[49] = test system: OVCAR-5 ovarian
[50] = test system: HT29 colon
[51] = test system: BT-549 breast
[52] = test system: K-562 leukemia
[53] = test system: A549 NSCLC
[54] = test system: OVCAR-3 ovarian
[55] = test system: NCI-H460 NSCLC
[56] = test system: MDA-MB-468 breast
[57] = test system: LOX IMVI melanoma

Molecule `COc1ccccc1-c1nccc(COc2ccccc2C[C@@H](Oc2ncnc3sc(-c4ccc(F)cc4)c(-c4ccc(OCCN5CCN(C)CC5)c(Cl)c4C)c23)C(=O)O)n1` has a GI50 [1] of 2.95 µM, a TGI [1] of 9.17 µM and a GI50 [2] of 0.391 µM. It also gave a TGI [2] of 1.6 µM, a GI50 [3] of under 0.01 µM and a TGI [3] of under 0.01 µM. For the same molecule, the GI50 [4] was 1.57 µM, the TGI [4] was 2.93 µM and the GI50 [5] was 0.163 µM. The TGI [5] was 3.11 µM, the GI50 [6] was 0.0786 µM and the TGI [6] was 1.04 µM. It also gave a GI50 [7] of under 0.01 µM, a TGI [7] of under 0.01 µM and a GI50 [8] of 5.29 µM. It also gave a TGI [8] of 16.2 µM, a GI50 [9] of under 0.01 µM and a TGI [9] of under 0.01 µM. It also gave a GI50 [10] of 1.72 µM, a TGI [10] of 3.1 µM and a GI50 [11] of 1.52 µM. For the same molecule, the TGI [11] was 2.9 µM, the GI50 [12] was 1.4 µM and the TGI [12] was 2.72 µM. For the same molecule, the GI50 [13] was 1.71 µM, the TGI [13] was 3.27 µM and the GI50 [14] was 1.54 µM. For the same molecule, the TGI [14] was 2.89 µM, the GI50 [15] was 4.23 µM and the TGI [15] was 14.2 µM. The GI50 [16] was 4.57 µM, the TGI [16] was 14.8 µM and the GI50 [17] was 1.2 µM. For the same molecule, the TGI [17] was 2.47 µM, the GI50 [18] was 1.78 µM and the TGI [18] was 3.21 µM. For the same molecule, the GI50 [19] was 1.87 µM, the TGI [19] was 3.36 µM and the GI50 [20] was 1.08 µM. It also gave a TGI [20] of 2.29 µM, a GI50 [21] of 1.77 µM and a TGI [21] of 3.24 µM. For the same molecule, the GI50 [22] was 0.0296 µM, the TGI [22] was 0.801 µM and the GI50 [23] was 0.0453 µM. The TGI [23] was 0.38 µM, the GI50 [24] was under 0.01 µM and the TGI [24] was under 0.01 µM. The GI50 [25] was 2.13 µM, the TGI [25] was 4.58 µM and the GI50 [26] was 1.88 µM. For the same molecule, the TGI [26] was 3.36 µM, the GI50 [27] was 1.82 µM and the TGI [27] was 3.24 µM. The GI50 [28] was 1.57 µM, the TGI [28] was 2.96 µM and the GI50 [29] was 2.75 µM. The TGI [29] was 6.51 µM, the GI50 [30] was under 0.01 µM and the TGI [30] was 0.0177 µM. For the same molecule, the GI50 [31] was 1.81 µM, the TGI [31] was 3.37 µM and the GI50 [32] was 1.94 µM. The TGI [32] was 3.53 µM, the GI50 [33] was under 0.01 µM and the TGI [33] was 0.0959 µM. It also gave a GI50 [34] of 1.66 µM, a TGI [34] of 3.09 µM and a GI50 [35] of 2.04 µM. For the same molecule, the TGI [35] was 3.64 µM, the GI50 [36] was 1.42 µM and the TGI [36] was 2.73 µM. For the same molecule, the GI50 [37] was 1.7 µM, the TGI [37] was 3.4 µM and the GI50 [38] was 1.91 µM. For the same molecule, the TGI [38] was 3.72 µM, the GI50 [39] was 1.82 µM and the TGI [39] was 3.54 µM. The GI50 [40] was 0.0206 µM, the TGI [40] was 0.057 µM and the GI50 [41] was 2.38 µM. The TGI [41] was 5.65 µM, the GI50 [42] was 26.8 µM and the TGI [42] was over 100 µM. The GI50 [43] was 1.73 µM, the TGI [43] was 3.14 µM and the GI50 [44] was 1.58 µM. The TGI [44] was 3.43 µM, the GI50 [45] was 2.26 µM and the TGI [45] was 5.43 µM. It also gave a GI50 [46] of 1.19 µM, a TGI [46] of 2.52 µM and a GI50 [47] of 0.0462 µM. It also gave a TGI [47] of 1.04 µM, a GI50 [48] of 1.47 µM and a TGI [48] of 2.8 µM. It also gave a GI50 [49] of 2.73 µM, a TGI [49] of 6.27 µM and a GI50 [50] of 1.83 µM. It also gave a TGI [50] of 3.33 µM, a GI50 [51] of 1.27 µM and a TGI [51] of 2.55 µM. It also gave a GI50 [52] of 1.93 µM, a TGI [52] of 3.48 µM and a GI50 [53] of 10.6 µM. The TGI [53] was 22.5 µM, the GI50 [54] was 1.85 µM and the TGI [54] was 3.27 µM. For the same molecule, the GI50 [55] was 1.33 µM, the TGI [55] was 3.54 µM and the GI50 [56] was 0.0109 µM. The TGI [56] was 0.054 µM, the GI50 [57] was 1.98 µM and the TGI [57] was 3.42 µM.
